Source: patent US20110045101A1, “FUNGICIDAL SUBSTITUTED AZOLES” (E.I. Du Pont De Nemours and Company, priority 2009, published 2011)
Marks after values point to notes of the source that are not given here.

How the values were obtained:
Type in all cases: in vivo
Settings in all cases: 100 = 100% disease control
[1] = test system: Erysiphe graminis f. sp. tritici; experiment: Test J: wheat powdery mildew on wheat seedlings, sprayed the day before inoculation, visual disease rating
Description: (§1) General protocol for preparing test suspensions for Tests A-J: The test compounds were first dissolved in acetone in an amount equal to 3% of the final volume and then suspended at the desired concentration (in ppm) in acetone and purified water (50/50 mix) containing 250 ppm of the surfactant Trem® 014 (polyhydric alcohol esters). The resulting test suspensions were then used in tests A-J. Spraying a 200 ppm test suspension to the point of run-off on the test plants was the equivalent of a rate of 500 g/ha. […] The test suspension was sprayed to the point of run-off on wheat seedlings. […] A dash (-) indicates no test results. All results are for 200 ppm except where followed by “*”, which indicates 40 ppm.

[2] = test system: Puccinia recondita f. sp. tritici; experiment: Test I: wheat leaf rust on wheat seedlings, sprayed the day before inoculation, visual disease rating
Description: as §1

Botrytis cinerea = experiment: Test C: tomato Botrytis on tomato seedlings, sprayed the day before inoculation, visual disease rating
Description: General protocol for preparing test suspensions for Tests A-J: The test compounds were first dissolved in acetone in an amount equal to 3% of the final volume and then suspended at the desired concentration (in ppm) in acetone and purified water (50/50 mix) containing 250 ppm of the surfactant Trem® 014 (polyhydric alcohol esters). The resulting test suspensions were then used in tests A-J. Spraying a 200 ppm test suspension to the point of run-off on the test plants was the equivalent of a rate of 500 g/ha. […] The test suspension was sprayed to the point of run-off on tomato seedlings. […] A dash (-) indicates no test results. All results are for 200 ppm except where followed by “*”, which indicates 40 ppm.

Septoria tritici = experiment: Test G: wheat leaf blotch on wheat seedlings, sprayed the day before inoculation, visual disease rating
Description: General protocol for preparing test suspensions for Tests A-J: The test compounds were first dissolved in acetone in an amount equal to 3% of the final volume and then suspended at the desired concentration (in ppm) in acetone and purified water (50/50 mix) containing 250 ppm of the surfactant Trem® 014 (polyhydric alcohol esters). The resulting test suspensions were then used in tests A-J. Spraying a 200 ppm test suspension to the point of run-off on the test plants was the equivalent of a rate of 500 g/ha. […] The test suspension was sprayed to the point of run-off on wheat seedlings. The following day the seedlings were inoculated with a spore suspension of Septoria tritici (the causal agent of wheat leaf blotch) and incubated in saturated atmosphere at 24° C. for 48 h, and then moved to a growth chamber at 20° C. for 19 days, after which time visual disease ratings were made. […] A dash (-) indicates no test results. All results are for 200 ppm except where followed by “*”, which indicates 40 ppm.

Alternaria solani = experiment: Test D: tomato early blight, sprayed the day before inoculation, visual disease rating
Description: as §1

Septoria nodorum = experiment: Test F: wheat glume blotch on wheat seedlings, sprayed the day before inoculation, visual disease rating
Description: as §1

[3] = 200 ppm, 0 = no control relative to controls
[4] = 40 ppm (marked *), 0 = no control

Row | Compound | Test J disease control rating ([1]; 200 ppm, 0 = no control) [%] | Test I disease control rating ([2]; 200 ppm, 0 = no control) [%] | Test C disease control rating (Botrytis cinerea; 200 ppm, 0 = no control) [%] | Test G disease control rating (Septoria tritici; 200 ppm, 0 = no control) [%] | Test D disease control rating (Alternaria solani; 200 ppm, 0 = no control) [%] | Test F disease control rating (Septoria nodorum; 200 ppm, 0 = no control) [%] | Test J disease control rating [1, 3] [%] | Test I disease control rating [2, 3] [%] | Test C disease control rating (Botrytis cinerea; [3]) [%] | Test G disease control rating (Septoria tritici; [3]) [%] | Test D disease control rating (Alternaria solani; [3]) [%] | Test F disease control rating (Septoria nodorum; [3]) [%] | other results
1 | N#Cc1cc(F)c(-c2c(Cl)ncn2-c2ccc(Cl)cc2)c(F)c1 [compound 193] | 98 | 97 | 99 | 98 | 100 | 0 |  |  |  |  |  |  | 
2 | Fc1ccc(-c2c(Cl)nc(Br)n2-c2ccc(Cl)cc2)c(Cl)c1 [compound 51] |  |  |  |  |  |  | 99 | 97 | 94 | 94 | 100 | 100 | 
3 | Cc1ccc(-n2cnc(Cl)c2-c2c(F)ccc(F)c2F)cc1 [compound 123] |  |  |  |  |  |  | 94 | 90 | 99 | 48 | 99 | 0 | 
4 | COc1cc(F)c(-n2c(Cl)nc(Cl)c2-c2ccc(Cl)cc2)c(F)c1 [compound 297] |  |  |  |  |  |  |  |  |  |  |  |  | Test J disease control rating [1, 4]: 100* %; Test I disease control rating [2, 4]: 99* %; Test C disease control rating (Botrytis cinerea; [4]): 99* %; Test G disease control rating (Septoria tritici; [4]): 94* %; Test D disease control rating (Alternaria solani; [4]): 100* %; Test F disease control rating (Septoria nodorum; [4]): 99* %
5 | COc1cc(Cl)cc(F)c1-c1c(Cl)nc(C)n1-c1ccc(Cl)cc1 [compound 149] | 95 | 95 | 53 | 96 | 0 | 98 |  |  |  |  |  |  | 
6 | COc1cc(F)c(-n2c(Cl)nc(Br)c2-c2ccc(Cl)cc2)c(F)c1 [compound 214] |  |  |  |  |  |  |  |  |  |  |  |  | Test J disease control rating [1, 4]: 98* %; Test I disease control rating [2, 4]: 97* %; Test C disease control rating (Botrytis cinerea; [4]): 100* %; Test G disease control rating (Septoria tritici; [4]): 94* %; Test D disease control rating (Alternaria solani; [4]): 99* %; Test F disease control rating (Septoria nodorum; [4]): 97* %
7 | Cc1nc(Cl)c(-c2c(F)cccc2F)n1-c1cccc(Cl)c1 [compound 236] | 100 | 100 | 100 | 96 | 100 | 99 |  |  |  |  |  |  | 
8 | Fc1ccc(F)c(-c2c(Cl)nc(Cl)n2-c2ccc(Cl)c(Cl)c2)c1F [compound 234] | 98 | 55 | 95 | 98 | 99 | 0 |  |  |  |  |  |  | 
9 | Fc1cccc(F)c1-c1c(Cl)nc(Br)n1Cc1cccc(Cl)c1 [compound 101] |  |  |  |  |  |  | 99 | 100 | 88 | 97 | 0 | 0 | 
10 | COc1cc(F)c(-c2c(Br)nc(OC)n2-c2ccc(Cl)cc2)c(F)c1 [compound 96] |  |  |  |  |  |  |  |  |  |  |  |  | Test J disease control rating ([1]; 40 ppm (marked *)): 99* %; Test I disease control rating ([2]; 40 ppm (marked *)): 97* %; Test C disease control rating (Botrytis cinerea; 40 ppm (marked *)): 98* %; Test G disease control rating (Septoria tritici; 40 ppm (marked *)): 97* %; Test D disease control rating (Alternaria solani; 40 ppm (marked *)): 100* %; Test F disease control rating (Septoria nodorum; 40 ppm (marked *)): 97* %
11 | Cc1nn(C)c(-c2c(F)cccc2Cl)c1-c1ccc(Cl)cc1 [compound 61] |  |  |  |  |  |  | 99 | 92 | 40 | 60 | 0 | 0 | 
12 | Cc1ccc(-n2cnc(Cl)c2-c2c(F)ccc(F)c2Cl)cc1 [compound 177] | 99 | 99 | 88 | 79 | 0 | 0 |  |  |  |  |  |  | 
13 | COc1ccc(-c2c(Cl)nc(C)n2-c2ccc(Cl)cc2)c(F)c1 [compound 113] |  |  |  |  |  |  | 97 | 97 | 98 | 95 | 99 | 97 | 
14 | Cc1nn(C)c(-c2c(F)cccc2F)c1-c1ccc(Cl)c(F)c1 [compound 68] |  |  |  |  |  |  | 99 | 9 | 0 | 40 | 0 | 0 | 
15 | COc1cc(F)c(-c2c(Cl)ncn2-c2ccc(C)cc2)c(F)c1 [compound 138] |  |  |  |  |  |  | 100 | 100 | 98 | 99 | 100 | 92 | 
16 | Cc1nc(Cl)c(-c2c(F)cccc2F)n1Cc1cccc(Cl)c1 [compound 126] |  |  |  |  |  |  | 99 | 99 | 97 | 96 | 99 | 69 | 
17 | Cc1nc(Cl)n(-c2ccc(Cl)c(F)c2)c1-c1ccccn1 [compound 264] | 99 | 98 | 99 | 95 | 88 | 0 |  |  |  |  |  |  | 
18 | Cc1nc(Cl)c(-c2ccc(F)cc2Cl)n1-c1ccc(Cl)cc1 [compound 49] |  |  |  |  |  |  | 99 | 99 | 98 | 94 | 100 | 100 | 
19 | Cc1ccc(-n2c(Cl)nc(Cl)c2-c2c(F)ccc(F)c2F)cc1C [compound 226] | 95 | 0 | 76 | 88 | 67 | 0 |  |  |  |  |  |  | 
20 | Fc1cc(-n2c(Cl)nc(Cl)c2-c2ccncc2F)ccc1Cl [compound 455] |  |  |  |  |  |  | 68 | 99 | 99 | 95 | 95 | 0 | 
21 | COc1ccc(F)c(-c2c(Cl)nc(C)n2-c2ccc(Cl)cc2)c1F [compound 122] |  |  |  |  |  |  | 100 | 100 | 98 | 96 | 100 | 100 | 
22 | Cc1c(CCl)sc(-c2cnc(Cl)n2-c2ccc(Cl)cc2)c1Cl [compound 451] |  |  |  |  |  |  | 0 | 19 | 0 | 82 | 0 | 0 | 
23 | Fc1cc(-n2cnc(Cl)c2-c2c(F)ccc(F)c2F)ccc1Cl [compound 124] |  |  |  |  |  |  | 98 | 95 | 98 | 90 | 97 | 0 | 
